Data published in ChEMBL document CHEMBL1201862, “PubChem BioAssay data set” (2004).
Each block holds one molecule with its values, some of them ahead of it. Activity calls are given as the source filed them.

How the values were obtained:
A-375 = assay: MITF: Counter assay: A375 proliferation Measured in Cell-Based System Using Plate Reader - 2084-03_Inhibitor_Dose_DryPowder_Activity. [Related pubchem assays (depositor defined):AID488944]; assay type: functional; settings: Homo sapiens
Vero = assay: viability of Vero cells under compound – cytotoxicity control for flavivirus capping enzyme inhibitors (AID 588742); assay type: functional; settings: Chlorocebus sabaeus
[1] = fluconazole-exposed Candida albicans growth modulators – fluorescence, retest, confirmation (AID 2467); assay type: functional, cell-based
[2] = target: T1, Serine/threonine-protein phosphatase (Candida dubliniensis (strain CD36 / CBS 7987 / NCPF 3949 / NRRLY-17841) (Yeast), UniProt B9W6M3); assay: blockers of CaCl2-induced CDRE-lacZ signaling – S. cerevisiae, luminescence, secondary, dose response (AID 2388); assay type: functional, cell-based;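 also: yeast reporter cells carrying a calcineurin-responsive lacZ construct stimulated with calcium chloride; luminescent beta-galactosidase reporter signal in whole cells rather than isolated phosphatase activity; potency for inhibition where a drop in reporter signal means calcineurin blockade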
T1 sequence (B9W6M3 whole entry): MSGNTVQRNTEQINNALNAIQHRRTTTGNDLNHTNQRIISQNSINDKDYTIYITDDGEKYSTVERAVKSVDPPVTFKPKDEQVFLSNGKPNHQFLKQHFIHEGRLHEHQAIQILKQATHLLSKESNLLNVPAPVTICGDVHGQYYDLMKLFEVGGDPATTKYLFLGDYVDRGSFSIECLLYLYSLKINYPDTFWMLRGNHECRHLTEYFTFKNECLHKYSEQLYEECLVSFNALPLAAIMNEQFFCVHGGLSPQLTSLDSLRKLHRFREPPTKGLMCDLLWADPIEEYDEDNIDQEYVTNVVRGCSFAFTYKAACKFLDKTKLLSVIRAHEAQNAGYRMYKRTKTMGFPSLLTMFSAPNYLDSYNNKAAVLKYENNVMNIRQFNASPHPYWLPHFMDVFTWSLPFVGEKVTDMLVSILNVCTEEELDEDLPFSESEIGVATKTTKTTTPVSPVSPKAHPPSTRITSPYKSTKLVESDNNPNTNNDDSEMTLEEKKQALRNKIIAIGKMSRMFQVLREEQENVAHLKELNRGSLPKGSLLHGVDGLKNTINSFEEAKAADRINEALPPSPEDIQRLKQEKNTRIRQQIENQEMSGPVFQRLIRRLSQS

[3] = HEK-293T viability loss after treatment – luminescence, T-cell screen hits, cytotoxicity control for TCR NF-kB inhibitor project, dose response (AID 489026); assay type: functional, cell-based;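 also: cells exposed to compound about 14 hours before the viability readout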
[4] = target: ATP-dependent molecular chaperone HSP82 (Candida albicans (strain WO-1) (Yeast), UniProt C4YTQ8); assay: steroid-induced GRE reporter decrease in yeast – S. cerevisiae, luminescence, Hsp90 inhibitor project, dose response (AID 2400); assay type: functional, cell-based;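 also: beta-galactosidase luminescence from glucocorticoid response element reporter as proxy for Hsp90 function; inhibitor potency where signal loss means Hsp90 inhibition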
[5] = reduction of Shn3 3'UTR-driven luciferase in osteoblasts – cell-based, Clone20 osteoblasts, firefly luciferase, cherry-picked, dose response (AID 624132); assay type: functional;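 also: firefly luciferase luminescence from reporter carrying the Shn3 3'UTR in osteoblasts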
[6] = loss of viability in HepG2 cells – cell-based, CellTiter-Glo, cherry-picked, cytotoxicity control for Shn3 inhibitor project, dose response (AID 624134); assay type: functional
[7] = non-specific 3'UTR reporter inhibition in Clone20-Shn3RL – cell-based, Renilla luciferase, cherry-picked, counter-screen for Shn3 inhibitor project, dose response (AID 624133); assay type: functional
[8] = target: Dual specificity protein kinase CLK2 (Homo sapiens, UniProt P49760); assay type: functional
[9] = target: Dual specificity mitogen-activated protein kinase kinase 1 (Homo sapiens, UniProt Q02750); assay: Navigating the Kinome. Panel member name: MAP2K1; assay type: functional
[10] = target: Tyrosine-protein kinase JAK2 (Homo sapiens, UniProt O60674); assay type: functional;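 also: JAK2 tested as one member of a kinase panel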
[11] = target: 5'-AMP-activated protein kinase catalytic subunit alpha-1 (Homo sapiens, UniProt Q13131); assay type: functional
[12] = target: Tyrosine-protein kinase receptor TYRO3 (Homo sapiens, UniProt Q06418); assay type: functional;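 also: TYRO3 value obtained as one member of a kinome-wide profiling panel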
[13] = target: Serine/threonine-protein kinase D3 (Homo sapiens, UniProt O94806); assay type: functional;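 also: determined within a kinase panel screen, with PRKCN as the panel member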
[14] = target: Death-associated protein kinase 3 (Homo sapiens, UniProt O43293); assay type: functional;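 also: measured as one member of a kinome-wide profiling panel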
[15] = target: Mast/stem cell growth factor receptor Kit (Homo sapiens, UniProt P10721); assay type: functional;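 also: KIT entry within a kinase panel assay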
[16] = target: Serine/threonine-protein kinase PAK 4 (Homo sapiens, UniProt O96013); assay type: functional;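 also: value obtained within a kinome profiling panel in which PAK4 was one of the panel members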
[17] = target: Mitogen-activated protein kinase 9 (Homo sapiens, UniProt P45984); assay type: functional;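 also: value from a kinome panel profiling assay, MAPK9 panel entry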
[18] = target: Serine/threonine-protein kinase TAO1 (Homo sapiens, UniProt Q7L7X3); assay type: functional
[19] = target: Glycogen synthase kinase-3 alpha (Homo sapiens, UniProt P49840); assay type: functional;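 also: GSK3A result taken from a broad kinome-wide kinase panel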
[20] = target: Vascular endothelial growth factor receptor 2 (Homo sapiens, UniProt P35968); assay type: functional
[21] = target: T2, cAMP-dependent protein kinase catalytic subunit PRKX (Homo sapiens, UniProt P51817); assay type: functional
T2 sequence (P51817 whole entry): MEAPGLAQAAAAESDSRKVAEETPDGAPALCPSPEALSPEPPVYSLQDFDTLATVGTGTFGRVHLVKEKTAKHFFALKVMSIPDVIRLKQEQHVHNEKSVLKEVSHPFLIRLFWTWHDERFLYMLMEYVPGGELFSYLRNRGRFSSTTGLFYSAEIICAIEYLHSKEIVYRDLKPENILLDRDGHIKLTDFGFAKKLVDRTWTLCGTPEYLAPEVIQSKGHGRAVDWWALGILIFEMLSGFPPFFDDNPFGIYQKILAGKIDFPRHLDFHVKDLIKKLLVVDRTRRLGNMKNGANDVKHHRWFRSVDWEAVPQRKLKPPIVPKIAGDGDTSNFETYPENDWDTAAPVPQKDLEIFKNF

[22] = target: Leucine-rich repeat serine/threonine-protein kinase 2 (Homo sapiens, UniProt Q5S007); assay type: functional;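 also: value from a broad kinome-wide panel profiling study in which LRRK2 was one of the kinases tested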
[23] = target: Rho-associated protein kinase 1 (Homo sapiens, UniProt Q13464); assay type: functional;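 also: measured within a broad kinome-wide panel profiling many kinases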
[24] = target: Tyrosine-protein kinase Fyn (Homo sapiens, UniProt P06241); assay type: functional
[25] = target: Cyclin-dependent kinase 8 (Homo sapiens, UniProt P49336); assay: Navigating the Kinome. Panel member name: CDK8; assay type: functional
[26] = target: Cyclin-dependent kinase 9 (Homo sapiens, UniProt P50750); assay type: functional;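 also: value from the CDK9 entry of a kinome-spanning kinase panel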
[27] = target: cAMP-dependent protein kinase catalytic subunit alpha (Homo sapiens, UniProt P17612); assay type: functional
[28] = target: Mitogen-activated protein kinase kinase kinase kinase 4 (Homo sapiens, UniProt O95819); assay type: functional
[29] = target: Dual specificity mitogen-activated protein kinase kinase 2 (Homo sapiens, UniProt P36507); assay: Navigating the Kinome. Panel member name: MAP2K2; assay type: functional
[30] = target: Mitogen-activated protein kinase 14 (Homo sapiens, UniProt Q16539); assay type: functional;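 also: part of a kinome-wide panel, MAPK14 entry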

Chain of Glycogen synthase kinase-3 alpha (P49840 whole entry): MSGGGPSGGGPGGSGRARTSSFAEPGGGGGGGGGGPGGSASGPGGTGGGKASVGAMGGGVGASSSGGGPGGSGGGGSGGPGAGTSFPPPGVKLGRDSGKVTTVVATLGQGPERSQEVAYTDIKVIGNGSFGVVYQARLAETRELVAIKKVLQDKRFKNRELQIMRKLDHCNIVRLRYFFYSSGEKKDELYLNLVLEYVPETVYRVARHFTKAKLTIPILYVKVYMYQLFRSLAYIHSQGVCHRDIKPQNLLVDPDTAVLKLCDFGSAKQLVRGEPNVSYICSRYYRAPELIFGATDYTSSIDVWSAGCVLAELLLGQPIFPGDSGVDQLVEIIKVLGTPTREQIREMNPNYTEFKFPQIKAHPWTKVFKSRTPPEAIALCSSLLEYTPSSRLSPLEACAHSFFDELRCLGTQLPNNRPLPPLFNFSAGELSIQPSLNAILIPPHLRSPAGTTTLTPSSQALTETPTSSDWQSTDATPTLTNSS
Chain of Serine/threonine-protein kinase D3 (O94806 whole entry): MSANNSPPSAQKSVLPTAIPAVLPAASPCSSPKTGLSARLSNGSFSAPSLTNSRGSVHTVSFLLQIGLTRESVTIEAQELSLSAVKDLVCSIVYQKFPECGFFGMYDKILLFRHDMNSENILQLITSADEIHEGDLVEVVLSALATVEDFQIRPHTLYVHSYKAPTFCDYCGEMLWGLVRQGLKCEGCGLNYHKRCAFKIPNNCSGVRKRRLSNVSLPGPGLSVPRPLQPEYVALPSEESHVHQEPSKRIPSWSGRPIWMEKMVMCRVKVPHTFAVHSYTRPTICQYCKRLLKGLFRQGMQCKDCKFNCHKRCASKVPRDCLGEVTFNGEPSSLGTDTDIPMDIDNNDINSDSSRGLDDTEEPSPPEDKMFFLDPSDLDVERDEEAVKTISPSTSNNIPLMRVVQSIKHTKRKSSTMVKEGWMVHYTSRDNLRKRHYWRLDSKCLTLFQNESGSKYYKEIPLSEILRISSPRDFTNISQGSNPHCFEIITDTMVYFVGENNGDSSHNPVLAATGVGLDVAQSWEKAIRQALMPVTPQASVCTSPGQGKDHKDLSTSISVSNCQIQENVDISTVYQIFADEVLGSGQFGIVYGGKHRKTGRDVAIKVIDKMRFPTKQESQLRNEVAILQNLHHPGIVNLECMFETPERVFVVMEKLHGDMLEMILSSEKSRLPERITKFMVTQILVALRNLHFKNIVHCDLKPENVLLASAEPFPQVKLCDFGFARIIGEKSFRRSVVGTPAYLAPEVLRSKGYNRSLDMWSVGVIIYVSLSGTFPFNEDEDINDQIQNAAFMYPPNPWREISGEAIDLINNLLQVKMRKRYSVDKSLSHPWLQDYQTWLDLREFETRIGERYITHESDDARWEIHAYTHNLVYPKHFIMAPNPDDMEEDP
Chain of Dual specificity protein kinase CLK2 (P49760 whole entry): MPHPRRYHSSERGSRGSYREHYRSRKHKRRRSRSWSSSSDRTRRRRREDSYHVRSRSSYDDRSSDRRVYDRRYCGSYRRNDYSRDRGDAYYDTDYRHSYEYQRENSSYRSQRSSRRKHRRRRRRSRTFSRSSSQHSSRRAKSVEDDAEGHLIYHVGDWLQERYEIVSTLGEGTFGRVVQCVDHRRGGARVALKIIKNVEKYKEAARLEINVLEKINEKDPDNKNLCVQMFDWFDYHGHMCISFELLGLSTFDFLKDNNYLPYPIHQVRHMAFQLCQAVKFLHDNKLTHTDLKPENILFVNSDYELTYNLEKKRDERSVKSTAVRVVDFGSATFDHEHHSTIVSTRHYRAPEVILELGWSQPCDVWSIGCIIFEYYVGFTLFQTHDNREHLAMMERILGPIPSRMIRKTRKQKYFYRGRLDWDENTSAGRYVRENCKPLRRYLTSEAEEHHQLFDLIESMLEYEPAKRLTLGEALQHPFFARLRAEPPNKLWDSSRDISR
Chain of Rho-associated protein kinase 1 (Q13464 whole entry): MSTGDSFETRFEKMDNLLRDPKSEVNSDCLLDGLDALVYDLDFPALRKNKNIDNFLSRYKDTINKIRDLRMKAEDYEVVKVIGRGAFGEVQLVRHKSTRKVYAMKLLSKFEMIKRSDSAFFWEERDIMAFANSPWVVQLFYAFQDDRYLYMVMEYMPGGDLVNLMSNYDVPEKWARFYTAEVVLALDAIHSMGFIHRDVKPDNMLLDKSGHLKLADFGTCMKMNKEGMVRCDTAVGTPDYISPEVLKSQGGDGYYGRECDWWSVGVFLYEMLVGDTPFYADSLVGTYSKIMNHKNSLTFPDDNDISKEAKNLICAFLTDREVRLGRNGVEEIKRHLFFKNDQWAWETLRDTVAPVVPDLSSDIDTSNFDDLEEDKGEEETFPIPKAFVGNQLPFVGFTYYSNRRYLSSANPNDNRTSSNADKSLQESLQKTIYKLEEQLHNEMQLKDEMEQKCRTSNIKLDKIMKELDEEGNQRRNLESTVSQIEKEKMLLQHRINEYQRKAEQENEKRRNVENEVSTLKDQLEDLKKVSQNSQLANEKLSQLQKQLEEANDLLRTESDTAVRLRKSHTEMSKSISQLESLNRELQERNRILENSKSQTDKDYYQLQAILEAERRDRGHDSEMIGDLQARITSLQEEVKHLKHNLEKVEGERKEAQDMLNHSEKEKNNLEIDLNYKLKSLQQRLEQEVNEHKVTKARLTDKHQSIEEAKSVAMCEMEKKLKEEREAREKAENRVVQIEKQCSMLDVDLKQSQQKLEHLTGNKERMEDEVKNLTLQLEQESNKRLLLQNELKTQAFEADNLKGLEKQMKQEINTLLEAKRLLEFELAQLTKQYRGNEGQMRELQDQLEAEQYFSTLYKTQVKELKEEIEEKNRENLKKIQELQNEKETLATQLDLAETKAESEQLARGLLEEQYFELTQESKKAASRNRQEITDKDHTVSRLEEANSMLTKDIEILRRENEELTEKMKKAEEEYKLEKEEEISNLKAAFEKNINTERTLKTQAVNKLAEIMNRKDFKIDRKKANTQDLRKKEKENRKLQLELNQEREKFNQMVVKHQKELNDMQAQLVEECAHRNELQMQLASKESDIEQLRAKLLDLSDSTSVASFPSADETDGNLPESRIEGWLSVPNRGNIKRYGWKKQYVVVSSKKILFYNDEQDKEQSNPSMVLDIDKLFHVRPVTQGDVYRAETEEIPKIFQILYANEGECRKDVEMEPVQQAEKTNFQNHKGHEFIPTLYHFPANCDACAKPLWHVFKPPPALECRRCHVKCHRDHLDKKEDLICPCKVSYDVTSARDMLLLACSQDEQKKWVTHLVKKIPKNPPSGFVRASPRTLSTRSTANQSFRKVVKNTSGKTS
Chain of Cyclin-dependent kinase 8 (P49336 whole entry): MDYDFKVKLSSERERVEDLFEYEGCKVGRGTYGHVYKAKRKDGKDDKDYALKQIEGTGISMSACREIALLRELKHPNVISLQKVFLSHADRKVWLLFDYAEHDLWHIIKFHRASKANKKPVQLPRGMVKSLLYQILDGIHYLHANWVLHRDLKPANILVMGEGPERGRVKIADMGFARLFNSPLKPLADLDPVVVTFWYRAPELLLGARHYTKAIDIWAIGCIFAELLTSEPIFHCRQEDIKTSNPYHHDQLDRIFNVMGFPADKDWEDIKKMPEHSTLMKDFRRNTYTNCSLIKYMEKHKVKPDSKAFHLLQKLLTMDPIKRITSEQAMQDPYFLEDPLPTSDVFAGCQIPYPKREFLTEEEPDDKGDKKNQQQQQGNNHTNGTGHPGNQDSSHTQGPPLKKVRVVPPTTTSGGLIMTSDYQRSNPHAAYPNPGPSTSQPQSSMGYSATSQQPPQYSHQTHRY
Chain of Death-associated protein kinase 3 (O43293 whole entry): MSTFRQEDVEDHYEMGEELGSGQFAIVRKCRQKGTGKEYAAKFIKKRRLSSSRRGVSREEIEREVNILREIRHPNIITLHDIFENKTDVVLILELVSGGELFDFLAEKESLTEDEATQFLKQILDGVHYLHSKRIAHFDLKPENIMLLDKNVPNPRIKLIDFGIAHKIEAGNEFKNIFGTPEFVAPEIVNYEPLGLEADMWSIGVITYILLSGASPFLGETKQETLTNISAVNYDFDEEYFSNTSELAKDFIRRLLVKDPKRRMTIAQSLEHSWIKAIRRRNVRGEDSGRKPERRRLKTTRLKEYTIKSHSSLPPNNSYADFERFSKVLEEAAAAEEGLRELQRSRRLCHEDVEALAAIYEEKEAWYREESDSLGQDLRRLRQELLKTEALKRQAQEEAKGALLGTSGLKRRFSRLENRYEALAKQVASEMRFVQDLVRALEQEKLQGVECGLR
Chain of Tyrosine-protein kinase receptor TYRO3 (Q06418 whole entry): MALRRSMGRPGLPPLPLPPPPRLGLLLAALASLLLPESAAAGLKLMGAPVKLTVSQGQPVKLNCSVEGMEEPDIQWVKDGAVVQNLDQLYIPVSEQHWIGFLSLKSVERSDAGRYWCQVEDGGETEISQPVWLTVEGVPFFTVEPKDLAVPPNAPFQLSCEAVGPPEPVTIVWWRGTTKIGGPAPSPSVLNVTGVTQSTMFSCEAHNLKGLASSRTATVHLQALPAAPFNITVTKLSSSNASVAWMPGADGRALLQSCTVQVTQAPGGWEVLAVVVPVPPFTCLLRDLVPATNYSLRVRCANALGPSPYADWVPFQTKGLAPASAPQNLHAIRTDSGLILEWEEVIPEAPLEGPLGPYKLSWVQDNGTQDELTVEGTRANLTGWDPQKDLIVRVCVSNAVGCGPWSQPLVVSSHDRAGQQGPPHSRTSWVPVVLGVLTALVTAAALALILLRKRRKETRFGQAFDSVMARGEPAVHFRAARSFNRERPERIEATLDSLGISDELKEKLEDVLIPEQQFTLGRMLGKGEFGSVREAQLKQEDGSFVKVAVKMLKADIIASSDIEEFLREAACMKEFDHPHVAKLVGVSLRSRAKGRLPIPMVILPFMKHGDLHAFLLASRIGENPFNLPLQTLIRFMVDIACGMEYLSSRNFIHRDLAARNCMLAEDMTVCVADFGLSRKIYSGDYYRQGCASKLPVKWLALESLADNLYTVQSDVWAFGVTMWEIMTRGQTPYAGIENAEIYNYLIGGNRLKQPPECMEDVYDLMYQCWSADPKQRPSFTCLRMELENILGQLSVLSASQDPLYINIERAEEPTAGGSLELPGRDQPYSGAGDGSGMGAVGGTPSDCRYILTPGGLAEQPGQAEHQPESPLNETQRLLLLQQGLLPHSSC

SMILES: CCc1cc[n+](C2=C([N-]S(=O)(=O)c3cccs3)C(=O)c3ccccc3C2=O)cc1
- AC50 (A-375): 35400 nM (active)

SMILES: O=C(NC1=C(NC2CCS(=O)(=O)C2)C(=O)c2ccccc2C1=O)c1ccccc1 (configuration not stated)
- CC50 (Vero): 7480 nM (active)

SMILES: CCCC(=O)NC(c1ccc(N(C)C)cc1)c1ccc2cccnc2c1O (configuration not stated)
- EC50 [1]: 626 nM (active)
- EC50 [2]: > 180000 nM (inactive)
- IC50 [3]: > 80000 nM (inactive)
- EC50 [4]: > 160000 nM (inactive)
- AC50 [5]: 916 nM (active)
- AC50 [6]: 2090 nM (active)
- AC50 [7]: 745 nM (active)

- Ki [8]: > 2510 nM (inactive)
- Ki [9]: 794 nM (active)
- Ki [10]: > 2510 nM (inactive)
- Ki [11]: 200 nM (active)
- Ki [12]: > 2000 nM (inactive)
- Ki [13]: 1580 nM (active)
- Ki [15]: > 6310 nM (inactive)
- Ki [16]: 2000 nM (active)
- Ki [17]: > 3980 nM (inactive)
- Ki [18]: 1000 nM (active)
- Ki [19]: 39.8 nM (active)
- Ki [20]: 794 nM (active)
- Ki [21]: > 2000 nM (inactive)
- Ki [22]: 398 nM (active)
- Ki [23]: > 2000 nM (inactive)
- Ki [24]: > 6310 nM (inactive)
- Ki [25]: > 3980 nM (inactive)
- Ki [26]: 316 nM (active)
- Ki [27]: 31.6 nM (active)
- Ki [28]: 200 nM (active)
- Ki [29]: 1260 nM (active)
- Ki [30]: > 3980 nM (inactive)
SMILES: O=C1NC(=O)C(c2c[nH]c3ccccc23)=C1c1nc(N2CCNCC2)nc2ccccc12
- Ki [14]: 631 nM (active)
